From ChEMBL document CHEMBL1156890, “Semi-synthetic aristolactams--inhibitors of CDK2 enzyme” (Bioorg Med Chem Lett, 2010)
The source made the active and inactive calls. No cut-off for these calls is given here.

What was measured:
[1] = target: T1, Cyclin-dependent kinase 2 (Homo sapiens, UniProt P24941); test: Inhibition of CDK2
[2] = target: T1, Cyclin-dependent kinase 2; test: Inhibition of CDK2 at 50 uM
[3] = target: Cyclin-dependent kinase 1 (Homo sapiens, UniProt P06493); test: Inhibition of CDC2
[4] = target: Cyclin-dependent kinase 4 (Homo sapiens, UniProt P11802); test: Inhibition of CDK4
Aurora kinase A = target: T2, Aurora kinase A (Homo sapiens, UniProt O14965); test: Inhibition of AUR2
T2 sequence (O14965 whole entry): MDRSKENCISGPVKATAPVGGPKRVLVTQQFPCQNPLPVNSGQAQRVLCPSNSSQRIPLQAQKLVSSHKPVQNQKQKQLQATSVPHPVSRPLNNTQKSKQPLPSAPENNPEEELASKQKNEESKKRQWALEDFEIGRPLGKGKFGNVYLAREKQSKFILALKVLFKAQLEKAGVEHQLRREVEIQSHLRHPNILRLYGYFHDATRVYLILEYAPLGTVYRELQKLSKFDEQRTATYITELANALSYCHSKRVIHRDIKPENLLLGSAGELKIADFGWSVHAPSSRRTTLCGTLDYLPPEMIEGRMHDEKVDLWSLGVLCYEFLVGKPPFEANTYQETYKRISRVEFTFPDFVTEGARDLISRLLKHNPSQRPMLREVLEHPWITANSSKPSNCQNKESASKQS

[5] = Inhibition of MAPK
MCF7 [6] = test: Antiproliferative activity against human MCF7 cells by soft agar growth assay; type: functional, cell-based
MCF7 [7] = test: Antiproliferative activity against human MCF7 cells by clonogenicity assay; type: functional, cell-based

Cyclin-dependent kinase 1, sequence (P06493 whole entry): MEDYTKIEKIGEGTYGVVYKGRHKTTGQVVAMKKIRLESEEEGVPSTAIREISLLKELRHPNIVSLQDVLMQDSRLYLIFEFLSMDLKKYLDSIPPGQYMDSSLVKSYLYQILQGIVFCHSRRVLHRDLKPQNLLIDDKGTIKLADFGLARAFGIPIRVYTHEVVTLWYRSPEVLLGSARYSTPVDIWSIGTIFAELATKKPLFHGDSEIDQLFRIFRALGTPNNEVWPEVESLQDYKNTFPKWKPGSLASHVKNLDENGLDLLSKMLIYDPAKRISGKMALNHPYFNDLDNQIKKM
Cyclin-dependent kinase 4, sequence (P11802 whole entry): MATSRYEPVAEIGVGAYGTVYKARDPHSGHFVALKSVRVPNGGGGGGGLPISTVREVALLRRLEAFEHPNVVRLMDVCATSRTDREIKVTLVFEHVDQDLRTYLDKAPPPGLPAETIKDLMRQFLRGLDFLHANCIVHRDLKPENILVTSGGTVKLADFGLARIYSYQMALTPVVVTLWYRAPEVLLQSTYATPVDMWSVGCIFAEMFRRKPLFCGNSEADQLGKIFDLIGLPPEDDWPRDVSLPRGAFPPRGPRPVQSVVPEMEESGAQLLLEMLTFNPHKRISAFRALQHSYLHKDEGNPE

| Structure (SMILES) | IC50 [1] | Activity [2] | other results |
| --- | --- | --- | --- |
| COc1ccc2c(c1O)-c1c(O)c(OC)cc3c1[C@H](C2)N(C)CC3 [CORYTUBERINE] | > 50 µM | – | – |
| COc1cc2c(cc1OC)-c1c3c(cc4c1[C@H](C2)N(C)CC4)OCO3 [DICENTRINE] | > 50 µM | – | – |
| COc1c(O)ccc2c1cc([N+](=O)[O-])c1c(C(=O)O)cc3c(c12)OCO3 [7-HYDROXY ARISTOLOCHIC A] | 25 µM | inactive | – |
| COc1ccc2c(c1OC)CN1CCc3cc4c(cc3C1C2)OCO4 (stereo unspecified) [TETRAHYDROBERBERINE] | > 50 µM | – | – |
| COc1cccc2c1cc1c3c(cc4c(c32)OCO4)C(=O)N1C | > 35 µM | inactive | – |
| COc1cc(OC)c2cc3c4c(cc5c(c4c2c1)OCO5)C(=O)N3 | > 15 µM | inactive | – |
| COc1cccc2c1cc1c3c(cc4c(c32)OCO4)C(=O)N1 [ARISTOLACTAM I] | 1.2 µM | – | – |
| O=C1Nc2c(Cl)c3ccccc3c3c(O)c(O)cc1c23 | > 25 µM | inactive | – |
| COC1=C[C@]23CCN(C)[C@H](Cc4ccc(OC)c(O)c42)C3=CC1=O [SALUTARIDINE] | > 50 µM | – | – |
| COc1ccc2cc([N+](=O)[O-])c3c(C(=O)O)cc4c(c3c2c1)OCO4 | > 20 µM | inactive | – |
| COc1ccc2nc3[nH]nc(C)c3c(OC)c2c1 | 0.02 µM | – | IC50 [3]: 0.2 µM; IC50 [4]: 2 µM; IC50 (Aurora kinase A): 5 µM; IC50 [5]: > 50 µM; IC50 (MCF7 [6]): 2 µM; IC50 (MCF7 [7]): 3.5 µM |
| COc1ccc2c(c1O)-c1c(OC)c(OC)cc3c1[C@H](C2)N(C)CC3 [ISOCORYDINE] | > 50 µM | – | – |
| O=C1Nc2cc3ccc(O)cc3c3c4c(cc1c23)OCO4 | 2.15 µM | – | – |
| CN1C(=O)c2cc3c(c4c2c1cc1c(O)cccc14)OCO3 | > 35 µM | inactive | – |
| COc1cccc2c1c(Cl)c([N+](=O)[O-])c1c(C(=O)O)cc(O)c(O)c12 | 16.5 µM | inactive | – |
| O=C1Nc2cc3ccccc3c3c(O)c(O)cc1c23 | > 35 µM | inactive | – |
| COc1ccc2c(c1OC)CC1c3c(cc4c(c3-2)OCO4)CCN1C (stereo unspecified) [CREBANINE] | > 50 µM | – | – |
| O=C(O)c1cc2c(c3c1c([N+](=O)[O-])cc1ccc(O)cc13)OCO2 [ARISTOLOCHIC ACID C] | 30 µM | inactive | – |
| O=C(O)c1cc(O)c(O)c2c1c([N+](=O)[O-])cc1c(O)cccc12 | 5.7 µM | inactive | – |
| COC1=C[C@@H]2[C@@H]3Cc4ccc(OC)c(O)c4[C@]2(CCN3C)CC1=O [SINOMENINE] | > 50 µM | – | – |
| COc1c(O)ccc2c1cc1c3c(cc4c(c32)OCO4)C(=O)N1 | 2.9 µM | – | – |
| O=C1Nc2cc3c(O)cccc3c3c(O)c(O)cc1c23 | > 35 µM | inactive | – |

| Structure (SMILES) | IC50 [1] | Activity [2] | other results |
| --- | --- | --- | --- |
| COc1c(O)cc2c3c(cc4ccc(O)cc4c13)NC2=O [ARISTOLACTAM AIIIA] | – | – | IC50 [3]: 0.2 µM; IC50 [4]: 2 µM; IC50 (Aurora kinase A): 5 µM; IC50 [5]: > 50 µM; IC50 (MCF7 [6]): > 0.01 µM; IC50 (MCF7 [7]): 3 µM |
| CN1CCc2cc3c(c4c2[C@H]1Cc1ccccc1-4)OCO3 [ROEMERINE HBR] | > 50 µM | – | – |
| COc1cc(O)cc2c1cc1c3c(cc4c(c32)OCO4)C(=O)N1 | > 35 µM | inactive | – |
| COc1cc(O)cc2c1cc([N+](=O)[O-])c1c(C(=O)O)cc3c(c12)OCO3 [ARISTOLOCHIC D] | 25 µM | inactive | – |
| COc1cccc2c1c(Cl)c1c3c(cc(O)c(O)c32)C(=O)N1 | 10 µM | inactive | – |
| COc1cccc2c1cc([N+](=O)[O-])c1c(C(=O)O)cc(O)c(O)c12 | > 30 µM | inactive | – |
| COc1cccc2c1cc([N+](=O)[O-])c1c(C(=O)O)cc3c(c12)OCO3 [ARISTOLOCHIC ACID] | > 20 µM | inactive | – |
| O=C(O)c1cc(O)c(O)c2c1c([N+](=O)[O-])c(Cl)c1ccccc12 | 18 µM | inactive | – |
| O=C1Nc2cc3c(O)cc(O)cc3c3c4c(cc1c23)OCO4 | > 50 µM | inactive | – |
| COc1cccc2c1C[C@@H]1c3c(cc4c(c3-2)OCO4)CCN1C [STEPHANINE] | > 50 µM | – | – |
| COc1cccc2c1cc1c3c(cc(O)c(O)c32)C(=O)N1 | > 35 µM | inactive | – |
| COc1ccc2c(cc3c4c(cc5c(c42)OCO5)C(=O)N3)c1OC | > 15 µM | inactive | – |
| COc1cc2c3c(c1O)-c1c(ccc(OC)c1OC)C[C@@H]3N(C)CC2 [CORYDINE] | > 50 µM | – | – |
| O=C(O)c1cc2c(c3c1c([N+](=O)[O-])cc1c(O)cccc13)OCO2 [ARISTOLOCHIC ACID III] | 15 µM | inactive | – |
| O=C1Nc2cc3ccccc3c3c4c(cc1c23)OCO4 [ARISTOLACTAM II] | 15 µM | inactive | – |
| COc1cccc2c1c(OC)c([N+](=O)[O-])c1c(C(=O)O)cc3c(c12)OCO3 [7-METHOXY ARISTOLOCHIC ACID A] | > 20 µM | inactive | – |
| O=C(O)c1cc2c(c3c1c([N+](=O)[O-])cc1ccccc13)OCO2 [ARISTOLOCHIC ACID II] | > 20 µM | inactive | – |
| O=C1Nc2cc3c(O)cccc3c3c4c(cc1c23)OCO4 | 0.035 µM | inactive | IC50 [3]: 0.214 µM; IC50 [4]: 1.42 µM; IC50 (Aurora kinase A): 2.14 µM; IC50 [5]: 35.3 µM |
| O=C1Nc2cc3c(O)c(O)ccc3c3c4c(cc1c23)OCO4 | > 30 µM | inactive | – |
| O=C(O)c1cc(O)c(O)c2c1c([N+](=O)[O-])cc1ccccc12 | 13.4 µM | inactive | – |
| COc1cc(OC)c2cc([N+](=O)[O-])c3c(C(=O)O)cc4c(c3c2c1)OCO4 [ARISTOLOCHIC ACID IV] | > 20 µM | inactive | – |
